Experiment: Blood-brain barrier penetration (brain tissue to plasma concentration ratio)
Format: in vivo
Conditions: rat, rats, four hours after dosing
Protocol: To determine whether the compound was able to cross the blood-brain barrier (BBB), the rats were administered with the test compound. Four hours after dosing, rats were sacrificed, blood and brain tissue were collected and the concentration of the test compound was analyzed. Brain permeation is defined as the ratio of the concentration of the compound in the brain tissue to the concentration in the plasma. P-glycoprotein is the blood-brain barrier efflux protein, […].

Kp at 4 h	Structure (SMILES)
> 0.3	C#Cc1c(F)ccc(Nc2ncnc3cc(OC)c(OC4CCN(C)CC4(F)F)cc23)c1F (racemic) [Compound 5, (R/S)-6-((3,3-difluoro-1-methylpiperidin-4-yl)oxy)-N-(3-ethynyl-2,4-difluorophenyl)-7-methoxyquinazolin-4-amine]
> 0.3	[2H]C([2H])([2H])Oc1cc2ncnc(Nc3cccc(C#C)c3F)c2cc1OC1CCN(C2COC2)CC1(F)F (racemic) [Compound 4, (R/S)-6-((3,3-difluoro-1-(oxetan-3-yl)piperidin-4-yl)oxy)-N-(3-ethynyl-2-fluorophenyl)-7-(methoxy-d3)quinazolin-4-amine]
> 0.3	C#Cc1cccc(Nc2ncnc3cc(OC)c(O[C@@H]4CCN(C5COC5)CC4(F)F)cc23)c1F [Compound 12, (R)-6-((3,3-difluoro-1-(oxetan-3-yl)piperidin-4-yl)oxy)-N-(3-ethynyl-2-fluorophenyl)-7-methoxyquinazolin-4-amine]
> 0.3	C#Cc1cccc(Nc2ncnc3cc(OC)c(O[C@H]4CCN(C5COC5)CC4(F)F)cc23)c1F [Compound 14, (S)-6-((3,3-difluoro-1-(oxetan-3-yl)piperidin-4-yl)oxy)-N-(3-ethynyl-2-fluorophenyl)-7-methoxyquinazolin-4-amine]
> 0.3	C#Cc1cccc(Nc2ncnc3cc(OC)c(O[C@@H]4CCN(C)CC4(F)F)cc23)c1F [Compound 20, (R)-6-((3,3-difluoro-1-methylpiperidin-4-yl)oxy)-N-(3-ethynyl-2-fluorophenyl)-7-methoxyquinazolin-4-amine]
> 0.3	C#Cc1c(F)ccc(Nc2ncnc3cc(OC)c(OC4CCN(C5COC5)CC4(F)F)cc23)c1F (racemic) [Compound 8, (R/S)-6-((3,3-difluoro-1-(oxetan-3-yl)piperidin-4-yl)oxy)-N-(3-ethynyl-2,4-difluorophenyl)-7-methoxyquinazolin-4-amine]
> 0.3	C#Cc1cccc(Nc2ncnc3cc(OC)c(OC4CCN(C)CC4(F)F)cc23)c1F (racemic) [Compound 6, (R/S)-6-((3,3-difluoro-1-methylpiperidin-4-yl)oxy)-N-(3-ethynyl-2-fluorophenyl)-7-methoxyquinazolin-4-amine]
> 0.3	[2H]C([2H])([2H])Oc1cc2ncnc(Nc3ccc(F)c(C#C)c3F)c2cc1OC1CCN(C2COC2)CC1(F)F (racemic) [Compound 10, (R/S)-6-((3,3-difluoro-1-(oxetan-3-yl)piperidin-4-yl)oxy)-N-(3-ethynyl-2,4-difluorophenyl)-7-(methoxy-d3)quinazolin-4-amine]
> 0.3	C#Cc1cccc(Nc2ncnc3cc(OC)c(O[C@H]4CCN(C)CC4(F)F)cc23)c1F [Compound 22, (S)-6-((3,3-difluoro-1-methylpiperidin-4-yl)oxy)-N-(3-ethynyl-2-fluorophenyl)-7-methoxyquinazolin-4-amine]
> 0.3	[2H]C([2H])([2H])Oc1cc2ncnc(Nc3ccc(F)c(C#C)c3F)c2cc1O[C@H]1CCN(C2COC2)CC1(F)F [Compound 30, (S)-6-((3,3-difluoro-1-(oxetan-3-yl)piperidin-4-yl)oxy)-N-(3-ethynyl-2,4-difluorophenyl)-7-(methoxy-d3)quinazolin-4-amine]
> 0.3	[2H]C([2H])([2H])Oc1cc2ncnc(Nc3ccc(F)c(C#C)c3F)c2cc1O[C@@H]1CCN(C2COC2)CC1(F)F [Compound 28, (R)-6-((3,3-difluoro-1-(oxetan-3-yl)piperidin-4-yl)oxy)-N-(3-ethynyl-2,4-difluorophenyl)-7-(methoxy-d3)quinazolin-4-amine]
> 0.3	C#Cc1c(F)ccc(Nc2ncnc3cc(OC)c(O[C@H]4CCN(C)CC4(F)F)cc23)c1F [Compound 21, (S)-6-((3,3-difluoro-1-methylpiperidin-4-yl)oxy)-N-(3-ethynyl-2,4-difluorophenyl)-7-methoxyquinazolin-4-amine]

Source: patent US11168067B2, “Substituted quinazoline compound having blood-brain barrier penetration capability” (WEISHANG (SHANGHAI) BIO-PHARMACEUTICAL CO., LTD., priority 2016, dated 2021)
